Data taken from patent US20230348564A1, “ANTI-CANCER PROTEINS” (UNICHEM LABORATORIES LTD, priority 2020, published 2023).

How the values were obtained:
MCF-7 (Breast cancer) = test: Xenograft study; assay type: in vivo, mice; conditions: MCF-7 xenograft, IP
Description: (§1) The Xenograft models used were HT-29, KB, PA-1, MCF-7, PANC-1, T24 and MDA-MB-231. The basic study design for the Xenograft study was as follows: • 1. Cell maintenance and cell suspension preparation • 2. Aseptic injection of tumor cell suspension in the donor animal • 3. Randomization of animals in respective groups • 4. IP dosing of test items in predetermined doses • 5. IP administration of standard • 6. After completion of dosing period. • 7. The Tumor volume recording weekly twice while body weight and clinical signs daily.

[1] = tested on: MDA-MB-231 (Mammary gland/breast adenocarcinoma); test: Xenograft study; assay type: in vivo, mice; conditions: MDA-MB-231 xenograft, IP
Description: as §1

[2] = tested on: PA-1 (Ovary teratocarcinoma); test: Xenograft study; assay type: in vivo, mice; conditions: PA-1 xenograft, IP
Description: as §1

KB (Cervical cancer) = test: Xenograft study; assay type: in vivo, mice; conditions: IP
Description: as §1

[3] = tested on: T24 (Urinary bladder/transitional cell carcinoma); test: Xenograft study; assay type: in vivo, mice; conditions: IP
Description: as §1

MDA-MB-231 = test: Cell cycle analysis (PI stain); assay type: cell-based, Human; conditions: 24 h
Description: (§2) The cell lines were maintained in DMEM+10% FBS (heat inactivated) at 37° C. with 5% CO2, and 95% humidity. Antibiotics Penicillin (100 U/mL) and Streptomycin (100 μg/mL) were added to the medium.
(§3) The stock solution of recombinant lectin having the amino acid sequence of SEQ ID NO. […] Doxorubicin was used as positive control and stock solution was prepared in DMSO.
(§4) Cells were counted using hemocytometer and plated in culture plates at density of 0.5×10^6 cells/well in DMEM+10% FBS in 6-well plates. Cells were incubated overnight to allow the cell recovery and exponential growth. Following overnight incubation, cells were sera starved in DMEM+1% FBS for 4 h. […] Untreated cells were included as Control group for test item. Cells treated with Doxorubicin were included as Positive Control group. DMSO treated cells were included as control group for Doxorubicin. After treatment, cells were incubated for a time period of 24 h. Following incubation, the pro-apoptotic effect by cell cycle was determined as follows: Cell cycle reagent contains PI stain, which stains DNA of cells in different phases of cell cycle; Sub(G0/G1), G1, S, G2 and M. Cells in Sub(G0/G1) phase correspond to apoptotic cells.
(§5) Cells were gently harvested into pre-labeled centrifuge tubes and centrifuged at 450 g for 5 min, RT (low brake). The supernatants were removed carefully (not to touch the pellet) and discarded. 1 mL of 1×PBS was added to the pellet and resuspended gently to make homogenous suspension. Cells were centrifuged at 450 g for 5 min, RT (low brake) (washing step). The supernatant was carefully removed leaving behind approx 100 μL of PBS. Cells were resuspended gently yet thoroughly in residual PBS. Ice-cold 70% ethanol (300 μLI) was added drop-wise into cells in each tube while vortexing at low speed (fixation step). Cells were stored at 4° C. for 24 h prior to staining.
(§6) Ethanol fixed cells were centrifuged at 450 g for 5 min, RT (low brake). The supernatant was carefully removed (not to touch the pellet) and discarded. (The pellet might not be visible but makes a thin film on surface of tube). 1 mL of 1×PBS was added into pellet and resuspended gently. Cells were incubated for 1 min at RT. Cells were centrifuged at 450 g for 5 min, RT (low brake) (washing step). The supernatant was removed carefully leaving behind approx 20 μL-50 μL of PBS. 200 μL of Cell Cycle reagent was added into each tube.
(§7) Cells were resuspended gently, mixed and were incubated for 30 min, RT, Dark. The stained samples were transferred into 96-well plates and acquired on flow cytometer (Guava technologies). Percentage of cells in Sub (G0/G1) phase were determined. Fold increase in apoptotic cells (treated with Test Items) was determined as compared to Control (untreated cells).

PANC-1 = test: Cell cycle analysis (PI stain); assay type: cell-based, Human; conditions: 24 h
Description: as §2, §3, §4, §5, §6, §7

Compound: COc1cccc2c1C(=O)c1c(O)c3c(c(O)c1C2=O)C[C@@](O)(C(=O)CO)C[C@@H]3O[C@H]1C[C@H](N)[C@H](O)[C@H](C)O1 [Doxorubicin, reference compound]
- Maximum Tumor Growth Inhibition (%) (MCF-7 (Breast cancer)): 65.23%
- Tumor Volume (mm^3) (Mean ± SEM) (MCF-7 (Breast cancer)): 771 ± 65 mm^3
- Maximum Tumor Growth Inhibition (%) [1]: 42.12%
- Tumor Volume (mm^3) (Mean ± SEM) [1]: 808.47 ± 178.59 mm^3
- Maximum Tumor Growth Inhibition (%) [2]: 84.48%
- Tumor Volume (mm^3) (Mean ± SEM) [2]: 631 ± 87 mm^3
- Maximum Tumor Growth Inhibition (%) (KB (Cervical cancer)): 64.60%
- Tumor Volume (mm^3) (Mean ± SEM) (KB (Cervical cancer)): 616 ± 118 mm^3
- Maximum Tumor Growth Inhibition (%) [3]: 59.07%
- Tumor Volume (mm^3) (Mean ± SEM) [3]: 366.32 ± 34.28 mm^3
- % Population of cells, Apoptotic Sub(G0/G1) (MDA-MB-231; 10 μM): 11.09%
- % Population of cells, G0/G1 (MDA-MB-231; 10 μM): 40.26%
- % Population of cells, G2/M (MDA-MB-231; 10 μM): 18.52%
- % Population of cells, S (MDA-MB-231; 10 μM): 22.70%
- % Population of cells, Apoptotic Sub(G0/G1) (MDA-MB-231; 100 μM): 92.02%
- % Population of cells, G0/G1 (MDA-MB-231; 100 μM): 5.64%
- % Population of cells, G2/M (MDA-MB-231; 100 μM): 0.83%
- % Population of cells, S (MDA-MB-231; 100 μM): 1.17%
- % Population of cells, Apoptotic Sub(G0/G1) (PANC-1; 10 μM): 14.74%
- % Population of cells, G0/G1 (PANC-1; 10 μM): 15.84%
- % Population of cells, G2/M (PANC-1; 10 μM): 27.44%
- % Population of cells, S (PANC-1; 10 μM): 18.45%
- % Population of cells, Apoptotic Sub(G0/G1) (PANC-1; 100 μM): 89.13%
- % Population of cells, G0/G1 (PANC-1; 100 μM): 9.65%
- % Population of cells, G2/M (PANC-1; 100 μM): 0.15%
- % Population of cells, S (PANC-1; 100 μM): 0.59%
